Here are results for four compounds from paper PMC7855449 (European journal of medicinal chemistry, 2020).

The nature of series [1]: Pharmacokinetic studies in mice. As to conditions: i.p. exposure corrected for PPB. In kind it is in vivo, female CD-1 mice.
The subject of series [2] is patient-derived HGSOC tumor spheroids. In words: Patient derived spheroid assay with Taxol. In kind it is cell-based.
For series [3] the following is noted: reported for 1a at 10 mg/kg, oral; cited from earlier work.

For the compound `CC(Sc1nc2nn(C3(C)COC3)cc2c(=O)n1-c1ccccc1)c1ccccc1` (centres unmarked) [Compound 74, 2-(3-methyloxetan-3-yl)-5-phenyl-6-((1-phenylethyl)thio)-2H-pyrazolo[3,4-d]pyrimidin-4(5H)-one], the “unbound drug AUC0-7h obs” value in series [1] was 500 nM·h.
Regarding `CC(Sc1nc2nn(C3COC3)cc2c(=O)n1-c1ccccc1)c1ccccn1` (centres unmarked) [Compound 69, 2-(oxetan-3-yl)-5-phenyl-6-((1-(pyridin-2-yl)ethyl)thio)-2H-pyrazolo[3,4-d]pyrimidin-4(5H)-one], the “unbound drug AUC0-7h obs” value in series [1] came to 1100 nM·h. Besides, in series [2], the single agent toxicity result is “no single agent toxicity”.
For the compound `CS(=O)(=O)N1CCN(C(=O)c2cnc3ccc(F)cc3c2-c2ccc(C3(C#N)CC3)cc2)CC1` [Compound 1a], the “AUC0-∞” value in series [3] is 14600 nM·h.
For `CC(Sc1nc2nn(C3COC3)cc2c(=O)n1-c1ccccc1)c1ccccc1` (centres unmarked) [Compound 68, 2-(oxetan-3-yl)-5-phenyl-6-((1-phenylethyl)thio)-2H-pyrazolo[3,4-d]pyrimidin-4(5H)-one], the “unbound drug AUC0-7h obs” value in series [1] was 600 nM·h.
